From US20150196033A1, “PESTICIDAL COMPOSITIONS AND PROCESSES RELATED THERETO” (priority 2012, published 2015)

Legend:
Assay type in all cases: in vivo
[1] = tested on: Yellow Fever Mosquito (YFM) (Aedes aegypti); settings: about 1 day-old larvae, scored on mortality after 3 days
Method: Certain molecules disclosed in this document were tested against YFM using procedures described in the following paragraph. In the reporting of the results, the “YFM Rating Table” was used (See Table Section).
Master plates containing 400 μg of a molecule dissolved in 100 μL of dimethyl sulfoxide (DMSO) (equivalent to a 4000 ppm solution) are used. A master plate of assembled molecules contains 15 μL per well. To this plate, 135 μL of a 90:10 water:acetone mixture is added to each well. A robot (Biomek® NXP Laboratory Automation Workstation) is programmed to dispense 15 μL aspirations from the master plate into an empty 96-well shallow plate (“daughter” plate). There are 6 reps (“daughter” plates) created per master. The created daughter plates are then immediately infested with YFM larvae.
The day before plates are to be treated, mosquito eggs are placed in Millipore water containing liver powder to begin hatching (4 g. into 400 ml). After the daughter plates are created using the robot, they are infested with 220 μL of the liver powder/larval mosquito mixture (about 1 day-old larvae). After plates are infested with mosquito larvae, a non-evaporative lid is used to cover the plate to reduce drying. Plates are held at room temperature for 3 days prior to grading. After 3 days, each well is observed and scored based on mortality.

[2] = tested on: Green Peach Aphid (GPA) (Myzus persicae); test: Bioassay on Green Peach Aphid (GPA), foliar spray on cabbage seedlings; settings: Myzus persicae, 72 h; 200 ppm foliar spray on cabbage seedlings, graded after three days, Abbott corrected % control; read-out: Rating GPA (% Control (or Mortality))
Method: Certain molecules disclosed in this document were tested against GPA using procedures described in the following example. In the reporting of the results, the “GPA Rating Table” was used (See Table Section).
Cabbage seedlings grown in 3-inch pots, with 2-3 small (3-5 cm) true leaves, were used as test substrate. The seedlings were infested with 20-50 GPA (wingless adult and nymph stages) one day prior to chemical application. Four pots with individual seedlings were used for each treatment. Test compounds (2 mg) were dissolved in 2 mL of acetone/MeOH (1:1) solvent, forming stock solutions of 1000 ppm test compound. The stock solutions were diluted 5× with 0.025% Tween 20 in H2O to obtain the solution at 200 ppm test compound. A hand-held aspirator-type sprayer was used for spraying a solution to both sides of […] leaves until runoff. Reference plants (solvent check) were sprayed with the diluent only containing 20% by volume of acetone/MeOH (1:1) solvent. Treated plants were held in a holding room for three days at approximately 25° C. and ambient relative humidity (RH) prior to grading. Evaluation was conducted by counting the number of live aphids per plant under a microscope. Percent Control was measured by using Abbott's correction formula (W.S. Abbott, “A Method of Computing the Effectiveness of an Insecticide” J. Econ. Entomol. 18 (1925), pp. 265-267) as follows.
Corrected % Control=100*(X−Y)/X • where • X=No. of live aphids on solvent check plants and • Y=No. of live aphids on treated plants

[3] = tested on: Beet Armyworm (BAW) (Spodoptera exigua); test: Bioassay on Beet Armyworm (BAW), 128-well diet tray assay; settings: Spodoptera exigua, 168 h; 50 μg/cm2 on artificial diet, second instar larvae, five to seven days; read-out: Rating BAW (% Control (or Mortality))
Summary of the method: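 Spodoptera exigua larvae on diet trays held 5–7 days at 25 °C, 14:10 light-dark. Percent mortality scored per well and averaged over eight wells.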

[4] = tested on: Corn Earworm (CEW) (Helicoverpa zea); test: Bioassay on Corn Earworm (CEW), 128-well diet tray assay; settings: Helicoverpa zea, 168 h, second instar larvae, five to seven days; for mortality at 50 µg/cm2: 50 μg/cm2 on artificial diet, read-out: Rating CEW (% Control (or Mortality))
Summary of the method: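 Helicoverpa zea larvae in 128-well diet trays, held at 25 °C, 14:10 light-dark for five to seven days. Percent mortality scored per well and averaged over eight wells.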

SMILES	Rating YFM (% Control (or Mortality)) [1]	mortality at 200 ppm [2]	mortality at 50 µg/cm2 [3]	mortality at 50 µg/cm2 [4]	mortality at 0.5 µg/cm2 ([4]; 0.5 μg/cm2 on artificial diet, read-out: Rating CEW (% Control (or Mortality)), *Tested at 0.5 μg/cm2)
COc1cc(C)c(-n2c(C)cs/c2=N\C(=O)Nc2ccc(-c3ncn(-c4ccc(OC(F)(F)F)cc4)n3)cc2)c(C)c1 [Molecule A44]	A (80-100)	0 to 80%	50 to 100%	50 to 100%	–
CCc1ccccc1N/C(S)=N/C(=O)Nc1ccc(-c2ncn(-c3ccc(OC(F)(F)F)cc3)n2)cc1 [Molecule A46]	A (80-100)	0 to 80%	50 to 100%	50 to 100%	–
COc1ccc(N/C(=N\C(=O)Nc2ccc(-c3ncn(-c4ccc(OC(F)(F)F)cc4)n3)cc2)SCOC(=O)C(C)C)cc1 [Molecule A62]	A (80-100)	0%	50 to 100%	50 to 100%	–
COc1ccc(N2C(=O)CS/C2=N\C(=O)Nc2ccc(-c3ncn(-c4ccc(OC(F)(F)F)cc4)n3)cc2)c(C)c1 [Molecule A110]	A (80-100)	0%	50 to 100%	–	50 to 100%
Cc1cccc(C)c1N1C(=O)C(C)(C)S/C1=N\C(=O)Nc1ccc(-c2ncn(-c3ccc(OC(F)(F)F)cc3)n2)cc1 [Molecule A126]	A (80-100)	0%	50 to 100%	50 to 100%	–
